Measured values as given in patent EP2892896B1 (Bristol-Myers Squibb Company, priority 2012, dated 2014).

What follows are molecules tested against T1, human melanin concentrating hormone receptor (MCHR1) (Homo sapiens, UniProt Q99705, A5T/E4Q) (assay: Radioligand binding assay for assessment of MCHR1 activity). Conditions: membranes from HEK-293 cells expressing a mutated (E4Q, A5T) hMCHR1 receptor; competition with 0.06 - 0.1 nM [Phe13, [125I]Tyr19]-MCH; 90 min.
T1 construct: expressed in transfected cells; host or cells: HEK-293 (stably transfected), membranes
Procedure: Radioligand Binding Assay for Assessment of MCHR1 Activity
An in vitro binding assay was used to determine the compound Ki value or ability to antagonize binding of a peptide agonist to the human melanin concentrating hormone receptor (MCHR1). […] Binding experiments were carried out with 0.5-1.0 µg of membrane protein incubated in a total of 0.2 mL in 25 mM HEPES (pH 7.4) with 10 mM MgCl2, 2 mM EGTA, and 0.1% BSA (Binding Buffer) for 90 min. For competition binding assays, reactions were carried out in the presence of with 0.06 - 0.1 nM [Phe^13, [^125I]Tyr^19]-MCH and increasing concentrations of unlabeled test molecules. […] Filters were dried, 0.05 mL MicroScint 20 was added to each well and radioactivity was subsequently quantified by scintillation counting on a TOPCOUNT® microplate scintillation counter (Packard). Inhibitory constants were determined by nonlinear least squares analysis using a four parameter logistic equation.

T1 sequence (Q99705 whole entry E4Q/A5T): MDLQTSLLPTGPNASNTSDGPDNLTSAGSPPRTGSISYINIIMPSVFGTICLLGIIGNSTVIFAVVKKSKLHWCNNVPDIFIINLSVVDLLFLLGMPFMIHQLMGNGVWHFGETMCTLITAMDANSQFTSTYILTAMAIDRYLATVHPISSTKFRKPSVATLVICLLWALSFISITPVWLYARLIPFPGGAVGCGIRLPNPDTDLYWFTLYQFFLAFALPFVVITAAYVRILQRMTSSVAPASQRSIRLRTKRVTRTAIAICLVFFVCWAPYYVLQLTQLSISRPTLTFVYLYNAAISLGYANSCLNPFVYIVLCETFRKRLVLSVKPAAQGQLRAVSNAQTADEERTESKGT

Row | Compound | Ki
1 | COc1cc(N2CC[C@@H](Oc3ccc(C4CC4)cc3)C2=O)ccc1OCCS(C)(=O)=O [Example 71, (R)-3-(4-Cyclopropylphenoxy)-1-(3-methoxy-4-(2-(methylsulfonyl)ethoxy)phenyl)pyrrolidin-2-one] | 0.003 µM
2 | COc1cc(N2CCC(Oc3ccccc3C(F)(F)F)C2=O)ccc1OCC(C)(C)O (stereo not shown) [Example 6] | 7 µM
3 | COc1cc(N2CCC(Oc3ccc(-n4ccnc4)cc3)C2=O)ccc1OCC(C)(C)O (stereo not shown) [Example 39] | 0.48 µM
4 | COc1cc(N2CCC(Oc3ccc(-c4ccccc4Cl)cc3)C2=O)ccc1OCC(C)(C)O (stereo not shown) [Example 25] | 0.068 µM
5 | Cc1cc(N2CCC(Oc3ccc(-c4ccccc4)cc3)C2=O)ccc1OCC(C)(C)O (stereo not shown) [Example 80] | 0.004 µM
6 | COc1cc(N2CCC(Oc3cccc(Cl)c3)C2=O)ccc1OCC(C)(C)O (stereo not shown) [Example 2] | 10 µM
7 | COc1cc(N2CCC(Oc3ccc(C4CC4)cc3)C2=O)ccc1OCC(C)(C)O (stereo not shown) [Example 22, 3-(4-Cyclopropylphenoxy)-1-(4-(2-hydroxy-2-methylpropoxy)-3-methoxyphenyl)pyrrolidin-2-one] | 0.023 µM
8 | Cc1cc(N2CC[C@H](Oc3ccc(-c4ccc(F)cc4)cc3)C2=O)ccc1OCCS(C)(=O)=O [Example 111] | 1.74 µM
9 | COc1cc(N2CCC(Oc3ccc(OC(F)(F)F)cc3)C2=O)ccc1OCCS(C)(=O)=O (stereo not shown) [Example 65, 1-(3-Methoxy-4-(2-(methylsulfonyl)ethoxy)phenyl)-3-(4-(trifluoromethoxy)phenoxy)pyrrolidin-2-one] | 0.008 µM
10 | COc1cc(N2CC[C@H](Oc3ccc(OC(F)(F)F)cc3)C2=O)ccc1OCC(C)(C)O [Example 16] | 2.34 µM
11 | COc1cc(N2CCC(Oc3ccc(-c4ccncc4)cc3)C2=O)ccc1OCC(C)(C)O (stereo not shown) [Example 37] | 0.073 µM
12 | COc1cc(N2CC[C@H](Oc3ccc(-c4ccccc4)cc3)C2=O)ccc1OC[C@H](O)C1CC1 [Example 45] | 1.06 µM
13 | CCS(=O)(=O)C[C@@H](O)COc1ccc(N2CCC(Oc3ccc(C(F)(F)F)cc3)C2=O)cc1OC (stereo partly shown) [Example 53] | 0.109 µM
14 | COc1cc(N2CCC(Oc3ccc(-c4ccc(F)cc4)cc3)C2=O)ccc1OC[C@@H](O)CS(C)(=O)=O (stereo partly shown) [Example 63] | 0.038 µM
15 | CCS(=O)(=O)C[C@@H](O)COc1ccc(N2CCC(Oc3ccc(-c4ccccc4)cc3)C2=O)cc1C (stereo partly shown) [Example 91] | 0.007 µM
16 | CCS(=O)(=O)C[C@@H](O)COc1ccc(N2CCC(Oc3ccc(OC4CC4)cc3)C2=O)cc1OC (stereo partly shown) [Example 56] | 0.071 µM
17 | COc1cc(N2CC=C(Oc3ccc(-c4ccccc4)cc3)C2=O)ccc1OCC(C)(C)O [Example 122] | 0.003 µM
18 | COc1cc(N2CC[C@H](Oc3ccc(C4CC4)cc3)C2=O)ccc1OCCS(C)(=O)=O [Example 73] | 0.087 µM
19 | CCS(=O)(=O)C[C@@H](O)COc1ccc(N2CCC(Oc3ccc(C4CC4)cc3)C2=O)cc1C (stereo partly shown) [Example 93] | 0.057 µM
20 | COc1cc(N2CC[C@@H](Oc3ccc(-c4ccccc4)cc3)C2=O)ccc1OC[C@H](O)C1CC1 [Example 44] | 0.004 µM
21 | Cc1cc(N2CC[C@H](Oc3ccc(C4CC4)cc3)C2=O)ccc1OCC(C)(C)O [Example 83] | 0.168 µM
22 | Cc1cc(N2CC[C@@H](Oc3ccc(C4CC4)cc3)C2=O)ccc1OCC(C)(C)O [Example 84] | 0.005 µM
23 | COc1cc(N2CCC(Oc3ccc(-c4ccccc4F)cc3)C2=O)ccc1OCCS(C)(=O)=O (stereo not shown) [Example 67, 3-(2'-Fluorobiphenyl-4-yloxy)-1-(3-methoxy-4-(2-(methylsulfonyl)ethoxy)phenyl)pyrrolidin-2-one] | 0.006 µM
24 | COc1cc(N2CCC(Oc3ccc(-c4ccccc4)cc3)C2=O)ccc1OCCS(=O)(=O)CC(C)(C)O (stereo not shown) [Example 75] | 0.013 µM
25 | Cc1cc(N2CCC(Oc3ccc(-c4ccc(F)cc4)cc3)C2=O)ccc1OC[C@@H](O)CS(C)(=O)=O (stereo partly shown) [Example 99] | 0.019 µM

Row | Compound | Ki
26 | Cc1cc(N2CCC(Oc3ccc(C4CC4)cc3)C2=O)ccc1OC[C@H](O)CS(C)(=O)=O (stereo partly shown) [Example 97] | 0.079 µM
27 | Cc1cc(N2CC=C(Oc3ccc(C4CC4)cc3)C2=O)ccc1OCC(C)(C)O [Example 118] | 0.009 µM
28 | COc1cc(N2CCC(Oc3ccc(-c4ccc(F)cc4)cc3)C2=O)ccc1OC[C@H](O)CS(C)(=O)=O (stereo partly shown) [Example 59] | 0.018 µM
29 | COc1cc(N2CCC(Oc3ccc(-c4ccccc4)cc3)C2=O)ccc1OCC(C)(C)O (stereo not shown) [Example 19] | 0.004 µM
30 | Cc1cc(N2CCC(Oc3ccc(CC(F)(F)F)cc3)C2=O)ccc1OCC(C)(C)O (stereo not shown) [Example 81] | 0.022 µM
31 | Cc1cc(N2CCC(Oc3ccc(-c4ccc(F)cc4)cc3)C2=O)ccc1OCCS(C)(=O)=O (stereo not shown) [Example 109] | 0.006 µM
32 | COc1cc(N2CCC(Oc3ccc(-c4ccccc4F)c(F)c3)C2=O)ccc1OCC(C)(C)O (stereo not shown) [Example 31] | 0.034 µM
33 | CCS(=O)(=O)C[C@H](O)COc1ccc(N2CCC(Oc3ccc(OC(F)(F)F)cc3)C2=O)cc1OC (stereo partly shown) [Example 50] | 0.197 µM
34 | COc1cccc(OC2CCN(c3ccc(OCC(C)(C)O)c(OC)c3)C2=O)c1 (stereo not shown) [Example 4] | 0.218 µM
35 | Cc1cc(N2CC[C@@H](Oc3ccc(-c4ccc(F)cc4)cc3)C2=O)ccc1OCCS(C)(=O)=O [Example 110] | 0.003 µM
36 | Cc1cc(N2CCC(Oc3ccc(-c4ccccc4)cc3)C2=O)ccc1OC[C@H](O)CS(C)(=O)=O (stereo partly shown) [Example 95] | 0.015 µM
37 | COc1cc(N2CCC(C)(Oc3ccc(OC(F)(F)F)cc3)C2=O)ccc1OCC(C)(C)O (stereo not shown) [Example 13, 1-(4-(2-Hydroxy-2-methylpropoxy)-3-methoxyphenyl)-3-methyl-3-(4-(trifluoromethoxy)phenoxy)pyrrolidin-2-one] | 0.473 µM
38 | COc1cc(N2CC[C@H](Oc3ccc(-c4ccccc4)cc3)C2=O)ccc1OCC(C)(C)O [Example 20] | 0.493 µM
39 | COc1ccc(OC2CCN(c3ccc(OCC(C)(C)O)c(OC)c3)C2=O)cc1 (stereo not shown) [Example 5] | 0.662 µM
40 | COc1cc(N2CCC(Oc3ccc(-c4ccccc4)cc3)C2=O)ccc1OC[C@@H](O)CS(C)(=O)=O (stereo partly shown) [Example 62] | 0.011 µM
41 | Cc1cc(N2CCC(Oc3ccc(C(F)(F)F)cc3)C2=O)ccc1OC[C@H](O)CS(C)(=O)=O (stereo partly shown) [Example 98] | 1.43 µM
42 | COc1cc(N2CCC(Oc3ccc(C4CC4)cc3)C2=O)ccc1OC[C@H](O)C1CC1 (stereo partly shown) [Example 46] | 0.012 µM
43 | Cc1cc(N2CCC(Oc3ccc(-c4ccccc4)cc3)C2=O)ccc1OCC1(O)CC(F)(F)C1 (stereo not shown) [Example 90] | 0.01 µM
44 | Cc1cc(N2CCC(Oc3ccc(C4CC4)cc3)C2=O)ccc1OC[C@@H](O)CS(C)(=O)=O (stereo partly shown) [Example 100] | 0.042 µM
45 | COc1cc(N2CCC(Oc3ccc(-c4ccccc4)cn3)C2=O)ccc1OCC(C)(C)O (stereo not shown) [Example 34, 1-(4-(2-Hydroxy-2-methylpropoxy)-3-methoxyphenyl)-3-(5-phenylpyridin-2-yloxy)pyrrolidin-2-one] | 0.013 µM
46 | Cc1cc(N2CCC(Oc3ccc(I)cc3)C2=O)ccc1OCC(C)(C)O (stereo not shown) [Example 85] | 0.022 µM
47 | COc1cc(N2CCC(Oc3ccc(-c4cccnc4)cc3)C2=O)ccc1OCC(C)(C)O (stereo not shown) [Example 36] | 0.067 µM
48 | COc1cc(N2CCC(Oc3ccc(OC(F)(F)F)c(F)c3)C2=O)ccc1OCC(C)(C)O (stereo not shown) [Example 18] | 0.959 µM
49 | COc1cc(N2CCC(Oc3ccccc3Cl)C2=O)ccc1OCC(C)(C)O (stereo not shown) [Example 1, 3-(2-Chlorophenoxy)-1-(4-(2-hydroxy-2-methylpropoxy)-3-methoxyphenyl)pyrrolidin-2-one] | 5 µM
